Experimental data reported in PubChem BioAssay AID1963869 (Molecular Pharmacology Branch, DTP, NCI, 2024).
Where “and” joins values, the source holds several entries; their conditions need not be identical. Identical values can stand only once.

test system: KRAS patient-derived spheroids with HUVEC/MSC, viability; test: Anticancer human tumor 323965-272-R-J2-PDC patient-derived pancreatic carcinoma cell line growth inhibition [KRAS2]; conditions: compound 0.0001 µM; hits give low values
Source text: Multicellular complex tumor spheroid response to RAS pathway inhibitors in combination with a targeted agents in patient-derived cell lines with oncogenic KRAS variants from multiple cancer types
A high-throughput screen of multi-cell type tumor spheroids was designed to identify active combinations of targeted small molecules and KRAS pathway inhibitors. Complex spheroids include a stromal component modeled by human endothelial cells (HUVEC) and fibroblasts modeled by human mesenchymal stem cells (MSCs). The concentration ranges selected for each drug and investigational agent were based upon clinically achievable concentrations if the clinical Cmax of the agent was known.
Compounds. The drugs and investigational agents: BI-3406 (NSC825286), BAY-293 (NSC824723), batoprotafib (TNO155; NSC825523), sotorasib (AMG 510; NSC818433), MRTX1257 (NSC819558), elimusertib (BAY 1895344; NSC800525), molibresib (GSK525762; NSC774829), temuterkib (LY3214996; NSC803410), venetoclax (NSC766270), alisertib (NSC759677), olaparib (NSC753686), talazoparib (NSC767125), erdafitinib (NSC781556), ipatasertib (NSC767898), cabozantinib (NSC761068), nintedanib (NSC756659), abemaciclib (NSC768073), docetaxel (NSC628503), trametinib (NSC758246), and sapanisertib (NSC764658) were obtained from the National Cancer Institute (NCI) Developmental Therapeutics Program Chemical Repository. The FDA-approved anticancer drug set is available from the Developmental Therapeutics Program. […] The stock solutions were prepared in dimethyl sulfoxide (DMSO, Sigma-Aldrich, St. Louis, MO, cat. D2650) at 800-fold the tested concentration and stored at -70 degrees C prior to their use. All drugs and investigational agents were tested over a range starting from a high concentration at or near the clinical Cmax and decreasing in half-log increments. If the clinical Cmax for an agent had not been determined, the highest concentration tested was 10 microM.
Cell Culture. All cells were maintained in an incubator at 37 degrees C and 5% CO2 with 95% humidity. The PDC lines were cultured according to standard operating procedures established by the NCI PDMR (https://pdmr.cancer.gov/sops/default.htm). Briefly, all PDCs were thawed and cultured in Matrigel-coated flasks prepared with a working solution of 1X Ham's F-12 nutrient mix, without supplementation (Invitrogen, Waltham, MA, cat. 11765054), 100 U/mL penicillin-streptomycin (Invitrogen, cat. 15140122), and 2.5% Matrigel (Corning Inc., Corning, NY, cat. 354248) for the first three passages. All PDCs were cultured in complete DMEM/F-12 media containing advanced DMEM/F-12 (Invitrogen, cat. 12634028), 4.9% defined fetal bovine serum, heat inactivated (HyClone Laboratories Inc., Logan, UT, cat. SH30070.03HI), 389 ng/mL hydrocortisone (Sigma-Aldrich, cat. H4001), 9.7 ng/mL human EGF recombinant protein (Invitrogen, cat. PHG0313), 23.4 microg/mL adenine (Sigma-Aldrich, cat. A2786), 97.3 U/mL penicillin-streptomycin (Invitrogen, cat. 15140122), 1.9 mM L-glutamine (Invitrogen, cat. 25030081), and 9.7 microM Y-27632 dihydrochloride (Tocris Bioscience, Bristol, United Kingdom, cat. 1254). The PDCs were cultured in complete DMEM/F12 media without 9.7 microM Y-27632 dihydrochloride for at least two passages prior to the screen. The established cell line HOP-62 was cultured in RPMI 1640 medium, HEPES (Invitrogen, cat. 22400105) with 10% defined fetal bovine serum (HyClone Laboratories Inc., cat. SH30070.03) and 2 mM L-glutamine (Invitrogen, cat. 25030081). The pooled donor HUVEC were cultured in endothelial cell growth medium 2 (PromoCell, Heidelberg, Germany, cat. C-22011) and the hMSC were cultured in mesenchymal stem cell growth medium 2 (PromoCell, cat. C-28009). For all experiments, HUVEC and hMSC were used at passages </=5, while the malignant cell lines were used at passages </=15. […]
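Note: spheroids exposed to agents for 7 days; 100% = DMSO vehicle control viability.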

Row | Compound | viability, T/C
1 | CC(=O)Nc1cccc(-n2c(=O)n(C3CC3)c(=O)c3c(Nc4ccc(I)cc4F)n(C)c(=O)c(C)c32)c1 | 98.3% [middle of 5 runs]

same assay, conditions: compound 0.000316 µM; hits give low values

Row | Compound | viability, T/C
2 | CC(=O)Nc1cccc(-n2c(=O)n(C3CC3)c(=O)c3c(Nc4ccc(I)cc4F)n(C)c(=O)c(C)c32)c1 | 90.7% [middle of 5 runs]
3 | CC(C)n1nc(-c2ccc3oc(N)nc3c2)c2c(N)ncnc21 | 91% [middle of 5 runs]
4 | CN(C)C/C=C/C(=O)Nc1cc2c(Nc3ccc(F)c(Cl)c3)ncnc2cc1O[C@H]1CCOC1 | 99% [middle of 5 runs]
5 | Cn1ncnc1[C@H]1c2n[nH]c(=O)c3cc(F)cc(c23)N[C@@H]1c1ccc(F)cc1 | 107% [middle of 4 runs]

same assay, conditions: compound 0.001 µM; hits give low values

Row | Compound | viability, T/C
6 | CC(=O)Nc1cccc(-n2c(=O)n(C3CC3)c(=O)c3c(Nc4ccc(I)cc4F)n(C)c(=O)c(C)c32)c1 | 76.2% [middle of 5 runs]
7 | CC(C)n1nc(-c2ccc3oc(N)nc3c2)c2c(N)ncnc21 | 81.3% [middle of 5 runs]
8 | CN(C)C/C=C/C(=O)Nc1cc2c(Nc3ccc(F)c(Cl)c3)ncnc2cc1O[C@H]1CCOC1 | 97.1% [middle of 5 runs]
9 | Cn1ncnc1[C@H]1c2n[nH]c(=O)c3cc(F)cc(c23)N[C@@H]1c1ccc(F)cc1 | 104% [middle of 4 runs]

same assay, conditions: compound 0.00316 µM; hits give low values

Row | Compound | viability, T/C
10 | CC(=O)Nc1cccc(-n2c(=O)n(C3CC3)c(=O)c3c(Nc4ccc(I)cc4F)n(C)c(=O)c(C)c32)c1 | 57.5% [middle of 5 runs]
11 | CC(C)n1nc(-c2ccc3oc(N)nc3c2)c2c(N)ncnc21 | 54.4% [middle of 5 runs]
12 | CCN1CCN(Cc2ccc(Nc3ncc(F)c(-c4cc(F)c5nc(C)n(C(C)C)c5c4)n3)nc2)CC1 | 93.4% [middle of 5 runs]
13 | CN(C)C/C=C/C(=O)Nc1cc2c(Nc3ccc(F)c(Cl)c3)ncnc2cc1O[C@H]1CCOC1 | 89.2% [middle of 5 runs]
14 | Cn1ncnc1[C@H]1c2n[nH]c(=O)c3cc(F)cc(c23)N[C@@H]1c1ccc(F)cc1 | 109% (2×) and 98.1% and 107%

same assay, conditions: compound 0.01 µM; hits give low values

Row | Compound | viability, T/C
15 | CC(=O)Nc1cccc(-n2c(=O)n(C3CC3)c(=O)c3c(Nc4ccc(I)cc4F)n(C)c(=O)c(C)c32)c1 | 44.7% [middle of 5 runs]
16 | CC(=O)OC12COC1CC(O)C1(C)C(=O)C(O)C3=C(C)C(OC(=O)C(O)C(NC(=O)OC(C)(C)C)c4ccccc4)CC(O)(C(OC(=O)c4ccccc4)C21)C3(C)C (configuration not stated) | 35.9% [middle of 5 runs]
17 | CC(C)n1nc(-c2ccc3oc(N)nc3c2)c2c(N)ncnc21 | 33.1% [middle of 5 runs]
18 | CC1COCCN1c1cc(-c2ccnn2C)c2ccnc(-c3ccn[nH]3)c2n1 (configuration not stated) | 77.9% [middle of 5 runs]
19 | CN(C)C/C=C/C(=O)Nc1cc2c(Nc3ccc(F)c(Cl)c3)ncnc2cc1O[C@H]1CCOC1 | 81% [middle of 5 runs]
20 | Cn1ncnc1[C@H]1c2n[nH]c(=O)c3cc(F)cc(c23)N[C@@H]1c1ccc(F)cc1 | 101% [middle of 4 runs]

same assay, conditions: compound 0.0316 µM; hits give low values

Row | Compound | viability, T/C
21 | C=CC(=O)N1CCN(c2nc(OCC3CCCN3C)nc3c2CCN(c2cccc4cccc(C)c24)C3)CC1CC#N (configuration not stated) | 70.1% [middle of 17 runs]
22 | CC(=O)Nc1cccc(-n2c(=O)n(C3CC3)c(=O)c3c(Nc4ccc(I)cc4F)n(C)c(=O)c(C)c32)c1 | 31.2% [middle of 5 runs]
23 | CC(=O)OC12COC1CC(O)C1(C)C(=O)C(O)C3=C(C)C(OC(=O)C(O)C(NC(=O)OC(C)(C)C)c4ccccc4)CC(O)(C(OC(=O)c4ccccc4)C21)C3(C)C (configuration not stated) | 35.4% [middle of 5 runs]
24 | CC(C)NCC(C(=O)N1CCN(c2ncnc3c2C(C)CC3O)CC1)c1ccc(Cl)cc1 (configuration not stated) | 97.7% [middle of 5 runs]
25 | CC(C)n1nc(-c2ccc3oc(N)nc3c2)c2c(N)ncnc21 | 24.4% [middle of 5 runs]
26 | CC1(C)CCC(CN2CCN(c3ccc(C(=O)NS(=O)(=O)c4ccc(NCC5CCOCC5)c([N+](=O)[O-])c4)c(Oc4cnc5[nH]ccc5c4)c3)CC2)=C(c2ccc(Cl)cc2)C1 | 100% [middle of 5 runs]
27 | CC1COCCN1c1cc(-c2ccnn2C)c2ccnc(-c3ccn[nH]3)c2n1 (configuration not stated) | 39.8% [middle of 5 runs]
28 | CC1OCC2(CCN(c3cnc(Sc4ccnc(N)c4Cl)c(N)n3)CC2)C1N (configuration not stated) | 77.5% and 85.9% and 85.1%
29 | CCN1CCN(Cc2ccc(Nc3ncc(F)c(-c4cc(F)c5nc(C)n(C(C)C)c5c4)n3)nc2)CC1 | 76.6% [middle of 5 runs]
30 | CCNC(=O)CC1N=C(c2ccc(Cl)cc2)c2cc(OC)ccc2-n2c(C)nnc21 (configuration not stated) | 97.2% [middle of 5 runs]
31 | CN(C)C/C=C/C(=O)Nc1cc2c(Nc3ccc(F)c(Cl)c3)ncnc2cc1O[C@H]1CCOC1 | 74.5% [middle of 5 runs]
32 | COc1cc(Nc2ncc3c(n2)-c2ccc(Cl)cc2C(c2c(F)cccc2OC)=NC3)ccc1C(=O)O | 91.7% [middle of 5 runs]
33 | COc1cc(OC)cc(N(CCNC(C)C)c2ccc3ncc(-c4cnn(C)c4)nc3c2)c1 | 102% [middle of 5 runs]
34 | COc1cc2nccc(Oc3ccc(NC(=O)C4(C(=O)Nc5ccc(F)cc5)CC4)cc3)c2cc1OC | 100% [middle of 5 runs]
35 | Cn1nccc1Nc1nccc(-c2cc3c(s2)C(C)(C)N(CCN2CCOCC2)C3=O)n1 | 92.9% [middle of 5 runs]
36 | Cn1ncnc1[C@H]1c2n[nH]c(=O)c3cc(F)cc(c23)N[C@@H]1c1ccc(F)cc1 | 101% [middle of 4 runs]
37 | O=C(c1cc(Cc2n[nH]c(=O)c3ccccc23)ccc1F)N1CCN(C(=O)C2CC2)CC1 | 102% [middle of 5 runs]

same assay, conditions: compound 0.1 µM; hits give low values

Row | Compound | viability, T/C
38 | C=CC(=O)N1CCN(c2nc(OCC3CCCN3C)nc3c2CCN(c2cccc4cccc(C)c24)C3)CC1CC#N (configuration not stated) | 60.4% [middle of 17 runs]
39 | CC(=O)OC12COC1CC(O)C1(C)C(=O)C(O)C3=C(C)C(OC(=O)C(O)C(NC(=O)OC(C)(C)C)c4ccccc4)CC(O)(C(OC(=O)c4ccccc4)C21)C3(C)C (configuration not stated) | 32.5% [middle of 5 runs]
40 | CC(C)NCC(C(=O)N1CCN(c2ncnc3c2C(C)CC3O)CC1)c1ccc(Cl)cc1 (configuration not stated) | 94% [middle of 5 runs]
41 | CC(C)n1nc(-c2ccc3oc(N)nc3c2)c2c(N)ncnc21 | 21.4% [middle of 5 runs]
42 | CC1(C)CCC(CN2CCN(c3ccc(C(=O)NS(=O)(=O)c4ccc(NCC5CCOCC5)c([N+](=O)[O-])c4)c(Oc4cnc5[nH]ccc5c4)c3)CC2)=C(c2ccc(Cl)cc2)C1 | 94.9% [middle of 5 runs]
43 | CC1COCCN1c1cc(-c2ccnn2C)c2ccnc(-c3ccn[nH]3)c2n1 (configuration not stated) | 25.1% [middle of 5 runs]
44 | CCN1CCN(Cc2ccc(Nc3ncc(F)c(-c4cc(F)c5nc(C)n(C(C)C)c5c4)n3)nc2)CC1 | 61% [middle of 5 runs]
45 | CCNC(=O)CC1N=C(c2ccc(Cl)cc2)c2cc(OC)ccc2-n2c(C)nnc21 (configuration not stated) | 83.4% [middle of 5 runs]
46 | CN(C)C/C=C/C(=O)Nc1cc2c(Nc3ccc(F)c(Cl)c3)ncnc2cc1O[C@H]1CCOC1 | 73.5% [middle of 5 runs]
47 | COc1cc(Nc2ncc3c(n2)-c2ccc(Cl)cc2C(c2c(F)cccc2OC)=NC3)ccc1C(=O)O | 72.2% [middle of 5 runs]
48 | COc1cc(OC)cc(N(CCNC(C)C)c2ccc3ncc(-c4cnn(C)c4)nc3c2)c1 | 101% [middle of 5 runs]
49 | COc1cc2nccc(Oc3ccc(NC(=O)C4(C(=O)Nc5ccc(F)cc5)CC4)cc3)c2cc1OC | 104% [middle of 5 runs]
50 | Cn1nccc1Nc1nccc(-c2cc3c(s2)C(C)(C)N(CCN2CCOCC2)C3=O)n1 | 87.8% [middle of 5 runs]
51 | Cn1ncnc1[C@H]1c2n[nH]c(=O)c3cc(F)cc(c23)N[C@@H]1c1ccc(F)cc1 | 89.2% [middle of 4 runs]
52 | O=C(c1cc(Cc2n[nH]c(=O)c3ccccc23)ccc1F)N1CCN(C(=O)C2CC2)CC1 | 102% [middle of 5 runs]

same assay, conditions: compound 0.316 µM; hits give low values

Row | Compound | viability, T/C
53 | CC(=O)OC12COC1CC(O)C1(C)C(=O)C(O)C3=C(C)C(OC(=O)C(O)C(NC(=O)OC(C)(C)C)c4ccccc4)CC(O)(C(OC(=O)c4ccccc4)C21)C3(C)C (configuration not stated) | 36.5% [middle of 5 runs]
54 | CC(C)NCC(C(=O)N1CCN(c2ncnc3c2C(C)CC3O)CC1)c1ccc(Cl)cc1 (configuration not stated) | 84.9% [middle of 5 runs]
55 | CC1(C)CCC(CN2CCN(c3ccc(C(=O)NS(=O)(=O)c4ccc(NCC5CCOCC5)c([N+](=O)[O-])c4)c(Oc4cnc5[nH]ccc5c4)c3)CC2)=C(c2ccc(Cl)cc2)C1 | 98% [middle of 5 runs]
56 | CC1COCCN1c1cc(-c2ccnn2C)c2ccnc(-c3ccn[nH]3)c2n1 (configuration not stated) | 21.9% [middle of 5 runs]
57 | CC1OCC2(CCN(c3cnc(Sc4ccnc(N)c4Cl)c(N)n3)CC2)C1N (configuration not stated) | 60% [middle of 19 runs]
